Measured values reported in PubChem BioAssay AID248 (DTP/NCI, 2004).
Toxic doses and inconclusive results are not listed.

Tested on: L1210 leukemia ip in BDF1 mice, survival T/C
Assay: NCI In Vivo Anticancer Drug Screen. Data for tumor model L1210 Leukemia (intraperitoneal) in B6D2F1 (BDF1) mice
Details: endpoint: mean survival time, higher = longer survival
In short: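 Tumor was transplanted into mice, which were then dosed with test compound or vehicle alone. Survival was recorded for each group, and the treated figure was expressed relative to the control figure.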

[1] = dose: 400.0 mg/kg/injection, schedule: Q01DX001 (ip), vehicle: Klucel (hydroxypropylcellulose) (HPC)
[2] = dose: 100.0 mg/kg/injection, schedule: Q04DX003 (ip), vehicle: Klucel (hydroxypropylcellulose) (HPC)
[3] = dose: 200.0 mg/kg/injection, schedule: Q04DX003 (ip), vehicle: Klucel (hydroxypropylcellulose) (HPC)
[4] = dose: 400.0 mg/kg/injection, schedule: Q04DX003 (ip), vehicle: Klucel (hydroxypropylcellulose) (HPC)
[5] = dose: 100.0 mg/kg/injection, schedule: Q04DX002 (ip), vehicle: Klucel (hydroxypropylcellulose) (HPC)
[6] = dose: 200.0 mg/kg/injection, schedule: Q04DX002 (ip), vehicle: Klucel (hydroxypropylcellulose) (HPC)
[7] = dose: 400.0 mg/kg/injection, schedule: Q04DX002 (ip), vehicle: Klucel (hydroxypropylcellulose) (HPC)
[8] = dose: 100.0 mg/kg/injection, schedule: Q01DX009 (ip), vehicle: Klucel (hydroxypropylcellulose) (HPC)
[9] = dose: 200.0 mg/kg/injection, schedule: Q01DX009 (ip), vehicle: Klucel (hydroxypropylcellulose) (HPC)
[10] = dose: 400.0 mg/kg/injection, schedule: Q01DX009 (ip), vehicle: Klucel (hydroxypropylcellulose) (HPC)
[11] = dose: 100.0 mg/kg/injection, schedule: Q01DX001 (ip), vehicle: saline
[12] = dose: 200.0 mg/kg/injection, schedule: Q01DX001 (ip), vehicle: saline
[13] = dose: 400.0 mg/kg/injection, schedule: Q01DX001 (ip), vehicle: saline

O=C(c1ccc(Cl)cc1)C(C(c1ccc([N+](=O)[O-])cc1)N1CCCCC1)N1CCCCC1 (stereo unspecified)
T/C (dose: 12.5 mg/kg/injection, schedule: Q01DX001 (ip), vehicle: Klucel (hydroxypropylcellulose) (HPC)): 98 % of control
T/C (dose: 12.5 mg/kg/injection, schedule: Q01DX009 (ip), vehicle: Klucel (hydroxypropylcellulose) (HPC)): 102 % of control
T/C (dose: 25.0 mg/kg/injection, schedule: Q01DX001 (ip), vehicle: Klucel (hydroxypropylcellulose) (HPC)): 104 % of control
T/C (dose: 25.0 mg/kg/injection, schedule: Q01DX009 (ip), vehicle: Klucel (hydroxypropylcellulose) (HPC)): 98 % of control
T/C (dose: 50.0 mg/kg/injection, schedule: Q01DX001 (ip), vehicle: Klucel (hydroxypropylcellulose) (HPC)): 102 % of control
T/C (dose: 50.0 mg/kg/injection, schedule: Q01DX009 (ip), vehicle: Klucel (hydroxypropylcellulose) (HPC)): 101 % of control
T/C [1]: 92 % of control

CCOC(=O)C(C)(C)OC(=O)Nc1ccccc1
T/C [2]: 98 % of control
T/C [3]: 91 % of control
T/C [4]: 98 % of control

CCCCCC(Oc1ccc(Cl)cc1C)C(=O)OCC (stereo unspecified)
T/C [5]: 90 % of control
T/C [6]: 87 % of control
T/C [7]: 107 % of control

O=[N+]([O-])c1cc([N+](=O)[O-])c(/C=C/c2ccccc2)c([N+](=O)[O-])c1/C=C/c1ccccc1
T/C [8]: 104 % of control
T/C [2]: 97 % of control
T/C [9]: 98 % of control
T/C [3]: 101 % of control
T/C [10]: 98 % of control
T/C [4]: 97 % of control

CC(NC(=O)NCCCl)C(O)c1ccccc1 (stereo unspecified)
T/C (dose: 20.0 mg/kg/injection, schedule: Q04DX003 (ip), vehicle: Klucel (hydroxypropylcellulose) (HPC)): 103 % of control
T/C (dose: 40.0 mg/kg/injection, schedule: Q04DX003 (ip), vehicle: Klucel (hydroxypropylcellulose) (HPC)): 96 % of control
T/C (dose: 80.0 mg/kg/injection, schedule: Q04DX003 (ip), vehicle: Klucel (hydroxypropylcellulose) (HPC)): 102 % of control
T/C [2]: 100 % of control

CCCCCCCCC(C)NCCOC(=O)c1ccc([N+](=O)[O-])cc1 (stereo unspecified)
T/C (dose: 75.0 mg/kg/injection, schedule: Q01DX001 (ip), vehicle: other): 89 % of control
T/C (dose: 150.0 mg/kg/injection, schedule: Q01DX001 (ip), vehicle: other): 89 % of control

O=C1C=CC(=O)C2C3C=CC(CC3)C12 (stereo unspecified)
T/C [11]: 107 % of control
T/C [12]: 98 % of control
T/C [13]: 98 % of control

COc1cc2cc(C)c(C)cc2cc1OC
T/C (dose: 100.0 mg/kg/injection, schedule: Q01DX001 (ip), vehicle: Klucel (hydroxypropylcellulose) (HPC)): 98 % of control
T/C [8]: 103 % of control
T/C (dose: 200.0 mg/kg/injection, schedule: Q01DX001 (ip), vehicle: Klucel (hydroxypropylcellulose) (HPC)): 101 % of control
T/C [9]: 110 % of control
T/C [1]: 98 % of control
T/C [10]: 109 % of control

Cc1ccc(Cl)cc1NC(=O)CCc1ccccc1
T/C [5]: 91 % of control
T/C [6]: 94 % of control
T/C [7]: 91 % of control

CCC1(NS(=O)(=O)c2ccc(N)cc2)C(=O)N(C)C(=O)N(C)C1=O
T/C [11]: 94 % of control
T/C [12]: 94 % of control
T/C [13]: 91 % of control

CC(=O)c1cccc(NC(=O)Nc2ccc(CCO)cc2)c1
T/C [8]: 95 % of control
T/C [9]: 95 % of control
T/C [10]: 100 % of control

COC1C(O)C(CO)OC1n1cnc2c(=S)nc(N)[nH]c21 (stereo unspecified)
T/C (dose: 266.0 mg/kg/injection, schedule: Q01DX001 (ip), vehicle: carboxymethylcellulose (CMC)): 153 % of control
T/C (dose: 400.0 mg/kg/injection, schedule: Q01DX001 (ip), vehicle: carboxymethylcellulose (CMC)): 157 % of control
T/C (dose: 600.0 mg/kg/injection, schedule: Q01DX001 (ip), vehicle: carboxymethylcellulose (CMC)): 153 % of control
